Results from ChEMBL document CHEMBL1201862, “PubChem BioAssay data set” (2004).
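Five concentrations, 48 hours, 96-well plates. Here, GI50 denotes the concentration required for 50% inhibition of growth.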 Activity calls are given as the source filed them. Rule as the data show it: active = GI50 up to about 1.1 µM and inactive = higher.

What was measured:
Experiment in all cases: NCI-60 cell line screen, 48 h
TK-10 = test system: TK-10
PC-3 = test system: PC-3
COLO 205 = test system: COLO 205
U-251 = test system: U-251
Malme-3M = test system: Malme-3M
MDA-MB-231 = test system: MDA-MB-231
SN12C = test system: SN12C
K562 = test system: K562
OVCAR-4 = test system: OVCAR-4
NCI-H460 = test system: NCI-H460
T47D = test system: T47D
SK-MEL-28 = test system: SK-MEL-28
LOX IMVI = test system: LOX IMVI
NCI/ADR-RES = test system: NCI/ADR-RES
HCC 2998 = test system: HCC 2998
MDA-MB-435 = test system: MDA-MB-435
SW-620 = test system: SW-620
HL-60 = test system: HL-60
IGROV-1 = test system: IGROV-1
SF-268 = test system: SF-268
A498 = test system: A498
NCI-H522 = test system: NCI-H522
CAKI-1 = test system: CAKI-1
Hs-578T = test system: Hs-578T
SR = test system: SR
MDA-N = test system: MDA-N
UACC-62 = test system: UACC-62
OVCAR-3 = test system: OVCAR-3
DU-145 = test system: DU-145
NCI-H23 = test system: NCI-H23
OVCAR-8 = test system: OVCAR-8
MCF7 = test system: MCF7
KM12 = test system: KM12
UO-31 = test system: UO-31
BT-549 = test system: BT-549
SNB-75 = test system: SNB-75
OVCAR-5 = test system: OVCAR-5
RXF 393 = test system: RXF 393
HOP-62 = test system: HOP-62
HT-29 = test system: HT-29
HCT-15 = test system: HCT-15
SK-MEL-5 = test system: SK-MEL-5
SF-295 = test system: SF-295
SK-MEL-2 = test system: SK-MEL-2
786-0 = test system: 786-0
EKVX = test system: EKVX
NCI-H226 = test system: NCI-H226
UACC-257 = test system: UACC-257
MOLT-4 = test system: MOLT-4
ACHN = test system: ACHN
RPMI-8226 = test system: RPMI-8226
HCT-116 = test system: HCT-116
SNB-19 = test system: SNB-19
HOP-92 = test system: HOP-92
SF-539 = test system: SF-539
SK-OV-3 = test system: SK-OV-3
A549 = test system: A549
CCRF-CEM = test system: CCRF-CEM
M14 = test system: M14

O=C1NC(=S)N/C1=C\c1cc2c(=O)c3ccccc3sc2s1
GI50 (TK-10): 97.7 µM (inactive)
GI50 (PC-3): 72.1 µM (inactive)
GI50 (COLO 205): 47.4 µM (inactive)
GI50 (U-251): 30.7 µM (inactive)
GI50 (Malme-3M): > 100 µM (inactive)
GI50 (MDA-MB-231): > 100 µM (inactive)
GI50 (SN12C): > 100 µM (inactive)
GI50 (K562): 29.9 µM (inactive)
GI50 (OVCAR-4): 76 µM (inactive)
GI50 (NCI-H460): 64 µM (inactive)
GI50 (T47D): > 100 µM (inactive)
GI50 (SK-MEL-28): 40.4 µM (inactive)
GI50 (LOX IMVI): 59.7 µM (inactive)
GI50 (NCI/ADR-RES): > 100 µM (inactive)
GI50 (HCC 2998): 71.1 µM (inactive)
GI50 (MDA-MB-435): > 100 µM (inactive)
GI50 (SW-620): 57.8 µM (inactive)
GI50 (HL-60): 36.5 µM (inactive)
GI50 (IGROV-1): 40.7 µM (inactive)
GI50 (SF-268): > 100 µM (inactive)
GI50 (A498): > 100 µM (inactive)
GI50 (NCI-H522): 71 µM (inactive)
GI50 (CAKI-1): > 100 µM (inactive)
GI50 (Hs-578T): 64.6 µM (inactive)
GI50 (SR): 22.8 µM (inactive)
GI50 (MDA-N): 87.7 µM (inactive)
GI50 (UACC-62): 29.4 µM (inactive)
GI50 (OVCAR-3): 54.1 µM (inactive)
GI50 (DU-145): > 100 µM (inactive)
GI50 (NCI-H23): 52.8 µM (inactive)
GI50 (OVCAR-8): 57.5 µM (inactive)
GI50 (MCF7): 35.8 µM (inactive)
GI50 (KM12): > 100 µM (inactive)
GI50 (UO-31): 58.5 µM (inactive)
GI50 (BT-549): 35 µM (inactive)
GI50 (SNB-75): 26.4 µM (inactive)
GI50 (OVCAR-5): > 100 µM (inactive)
GI50 (RXF 393): 68.1 µM (inactive)
GI50 (HOP-62): 32.5 µM (inactive)
GI50 (HT-29): 55.1 µM (inactive)
GI50 (HCT-15): > 100 µM
GI50 (SK-MEL-5): > 100 µM (inactive)
GI50 (SF-295): 70.5 µM (inactive)
GI50 (SK-MEL-2): > 100 µM (inactive)
GI50 (786-0): 40.2 µM (inactive)
GI50 (EKVX): 3.51 µM (inactive)
GI50 (NCI-H226): > 100 µM (inactive)
GI50 (UACC-257): > 100 µM (inactive)
GI50 (MOLT-4): 23.5 µM (inactive)
GI50 (ACHN): 60.8 µM (inactive)
GI50 (RPMI-8226): 25.6 µM (inactive)
GI50 (HCT-116): 36.4 µM (inactive)
GI50 (SNB-19): 33.4 µM (inactive)

Cc1ccc(NC(=O)C(=O)CC(=O)c2sc(Nc3c(C)cccc3C)nc2C)cc1C
GI50 (TK-10): > 100 µM (inactive)
GI50 (PC-3): > 100 µM (inactive)
GI50 (COLO 205): > 100 µM (inactive)
GI50 (HOP-92): > 100 µM (inactive)
GI50 (U-251): > 100 µM (inactive)
GI50 (MDA-MB-231): > 100 µM (inactive)
GI50 (SN12C): > 100 µM (inactive)
GI50 (K562): > 100 µM (inactive)
GI50 (OVCAR-4): > 100 µM (inactive)
GI50 (NCI-H460): > 100 µM (inactive)
GI50 (SF-539): > 100 µM (inactive)
GI50 (T47D): > 100 µM (inactive)
GI50 (SK-OV-3): > 100 µM (inactive)
GI50 (SK-MEL-28): > 100 µM (inactive)
GI50 (LOX IMVI): > 100 µM (inactive)
GI50 (NCI/ADR-RES): > 100 µM (inactive)
GI50 (HCC 2998): > 100 µM (inactive)
GI50 (MDA-MB-435): > 100 µM (inactive)
GI50 (SW-620): > 100 µM (inactive)
GI50 (HL-60): 55.2 µM (inactive)
GI50 (IGROV-1): > 100 µM (inactive)
GI50 (SF-268): > 100 µM (inactive)
GI50 (NCI-H522): 71.4 µM (inactive)
GI50 (CAKI-1): > 100 µM (inactive)
GI50 (A549): > 100 µM (inactive)
GI50 (Hs-578T): > 100 µM (inactive)
GI50 (SR): 37.3 µM (inactive)
GI50 (MDA-N): > 100 µM (inactive)
GI50 (UACC-62): > 100 µM (inactive)
GI50 (OVCAR-3): > 100 µM (inactive)
GI50 (DU-145): > 100 µM (inactive)
GI50 (NCI-H23): > 100 µM (inactive)
GI50 (CCRF-CEM): > 100 µM (inactive)
GI50 (OVCAR-8): > 100 µM (inactive)
GI50 (MCF7): > 100 µM (inactive)
GI50 (KM12): > 100 µM (inactive)
GI50 (UO-31): 81.8 µM (inactive)
GI50 (M14): > 100 µM (inactive)
GI50 (BT-549): > 100 µM (inactive)
GI50 (OVCAR-5): > 100 µM (inactive)
GI50 (RXF 393): > 100 µM (inactive)
GI50 (HOP-62): > 100 µM (inactive)
GI50 (HT-29): > 100 µM (inactive)
GI50 (HCT-15): > 100 µM
GI50 (SK-MEL-5): > 100 µM (inactive)
GI50 (SF-295): > 100 µM (inactive)
GI50 (SK-MEL-2): > 100 µM (inactive)
GI50 (786-0): > 100 µM (inactive)
GI50 (EKVX): > 100 µM (inactive)
GI50 (NCI-H226): > 100 µM (inactive)
GI50 (UACC-257): > 100 µM (inactive)
GI50 (MOLT-4): > 100 µM (inactive)
GI50 (ACHN): > 100 µM (inactive)
GI50 (RPMI-8226): > 100 µM (inactive)
GI50 (HCT-116): > 100 µM (inactive)
GI50 (SNB-19): > 100 µM (inactive)
